This is an account of results in ChEMBL document CHEMBL5465560, “Selectivity Literature for EUbOPEN Chemogenomic Library” (2024).

Experiment [1] concerns the target Ribosomal protein S6 kinase alpha-3 (Homo sapiens, UniProt P51812). Description: Selectivity interaction (ProQinase) EUB0000171b RPS6KA3.
Experiment [2] has as its target T1, Tyrosine-protein kinase ZAP-70 (Homo sapiens) (UniProt P43403).
T1 sequence (whole entry): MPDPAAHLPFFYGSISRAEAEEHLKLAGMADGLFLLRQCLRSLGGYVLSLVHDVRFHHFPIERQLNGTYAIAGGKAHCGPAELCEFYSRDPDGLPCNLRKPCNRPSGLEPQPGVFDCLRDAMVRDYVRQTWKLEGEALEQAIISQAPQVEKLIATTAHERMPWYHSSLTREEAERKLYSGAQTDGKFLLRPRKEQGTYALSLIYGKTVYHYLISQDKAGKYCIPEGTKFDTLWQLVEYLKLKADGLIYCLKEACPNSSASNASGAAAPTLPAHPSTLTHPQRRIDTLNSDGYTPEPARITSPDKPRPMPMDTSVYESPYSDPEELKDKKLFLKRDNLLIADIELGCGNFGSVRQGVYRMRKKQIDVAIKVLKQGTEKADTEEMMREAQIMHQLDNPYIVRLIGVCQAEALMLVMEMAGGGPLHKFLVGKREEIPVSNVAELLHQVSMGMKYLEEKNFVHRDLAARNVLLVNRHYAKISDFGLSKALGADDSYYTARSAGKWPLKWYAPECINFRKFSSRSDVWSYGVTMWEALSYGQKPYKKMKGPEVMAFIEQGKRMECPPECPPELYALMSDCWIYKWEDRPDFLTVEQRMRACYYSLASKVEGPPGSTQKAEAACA
Description: Selectivity interaction (KinomeScan (DiscoverX)) EUB0000655a ZAP70. Particulars: at 10 µM.

The target in experiment [3] is T2, Serine/threonine-protein kinase haspin (Homo sapiens) (UniProt Q8TF76).
T2 sequence (whole entry): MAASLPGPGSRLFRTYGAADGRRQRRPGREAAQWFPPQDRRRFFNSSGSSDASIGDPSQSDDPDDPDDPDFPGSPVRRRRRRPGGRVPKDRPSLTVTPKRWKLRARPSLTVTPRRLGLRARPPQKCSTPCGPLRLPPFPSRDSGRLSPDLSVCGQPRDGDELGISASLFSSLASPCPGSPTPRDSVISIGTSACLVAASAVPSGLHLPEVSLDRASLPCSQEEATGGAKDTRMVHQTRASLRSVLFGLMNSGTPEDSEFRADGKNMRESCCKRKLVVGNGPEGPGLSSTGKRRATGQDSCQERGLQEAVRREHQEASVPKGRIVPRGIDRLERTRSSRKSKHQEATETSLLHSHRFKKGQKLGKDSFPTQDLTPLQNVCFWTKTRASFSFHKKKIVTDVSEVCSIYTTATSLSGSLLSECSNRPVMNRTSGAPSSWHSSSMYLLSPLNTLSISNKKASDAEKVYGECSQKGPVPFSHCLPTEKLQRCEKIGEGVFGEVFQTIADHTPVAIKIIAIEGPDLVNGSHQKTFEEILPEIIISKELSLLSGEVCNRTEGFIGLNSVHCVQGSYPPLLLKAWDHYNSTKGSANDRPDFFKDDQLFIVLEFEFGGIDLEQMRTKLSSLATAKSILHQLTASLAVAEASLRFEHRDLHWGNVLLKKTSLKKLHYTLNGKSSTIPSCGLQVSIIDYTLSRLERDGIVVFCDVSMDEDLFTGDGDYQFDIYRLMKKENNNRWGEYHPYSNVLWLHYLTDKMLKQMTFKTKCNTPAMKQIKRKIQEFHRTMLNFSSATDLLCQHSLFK
In words: Selectivity interaction (KinomeScan (DiscoverX)) EUB0001550a GSG2. Particulars: at 1 µM.

Experiment [4] addresses T3, Testis-specific serine/threonine-protein kinase 3 (Homo sapiens) (UniProt Q96PN8).
T3 sequence (whole entry): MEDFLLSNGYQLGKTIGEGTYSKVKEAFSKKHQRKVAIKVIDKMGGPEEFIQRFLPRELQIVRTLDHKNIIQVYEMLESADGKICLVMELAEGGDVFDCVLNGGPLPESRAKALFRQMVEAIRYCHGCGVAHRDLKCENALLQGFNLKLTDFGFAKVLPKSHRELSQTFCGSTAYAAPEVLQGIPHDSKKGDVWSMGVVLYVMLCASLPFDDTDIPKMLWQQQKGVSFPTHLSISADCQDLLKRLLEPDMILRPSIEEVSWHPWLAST
Description: Selectivity interaction (KinomeScan (DiscoverX)) EUB0000695a TSSK3. The conditions noted are these: at 100 nM.

The target in experiment [5] is Platelet-derived growth factor receptor beta (Homo sapiens, UniProt P09619). In words: Selectivity interaction (Kinase panel (Carna Biosciences)) EUB0001542aTs PDGFRB. The conditions noted are these: at 1 µM.
Sequence of Platelet-derived growth factor receptor beta (P09619 whole entry): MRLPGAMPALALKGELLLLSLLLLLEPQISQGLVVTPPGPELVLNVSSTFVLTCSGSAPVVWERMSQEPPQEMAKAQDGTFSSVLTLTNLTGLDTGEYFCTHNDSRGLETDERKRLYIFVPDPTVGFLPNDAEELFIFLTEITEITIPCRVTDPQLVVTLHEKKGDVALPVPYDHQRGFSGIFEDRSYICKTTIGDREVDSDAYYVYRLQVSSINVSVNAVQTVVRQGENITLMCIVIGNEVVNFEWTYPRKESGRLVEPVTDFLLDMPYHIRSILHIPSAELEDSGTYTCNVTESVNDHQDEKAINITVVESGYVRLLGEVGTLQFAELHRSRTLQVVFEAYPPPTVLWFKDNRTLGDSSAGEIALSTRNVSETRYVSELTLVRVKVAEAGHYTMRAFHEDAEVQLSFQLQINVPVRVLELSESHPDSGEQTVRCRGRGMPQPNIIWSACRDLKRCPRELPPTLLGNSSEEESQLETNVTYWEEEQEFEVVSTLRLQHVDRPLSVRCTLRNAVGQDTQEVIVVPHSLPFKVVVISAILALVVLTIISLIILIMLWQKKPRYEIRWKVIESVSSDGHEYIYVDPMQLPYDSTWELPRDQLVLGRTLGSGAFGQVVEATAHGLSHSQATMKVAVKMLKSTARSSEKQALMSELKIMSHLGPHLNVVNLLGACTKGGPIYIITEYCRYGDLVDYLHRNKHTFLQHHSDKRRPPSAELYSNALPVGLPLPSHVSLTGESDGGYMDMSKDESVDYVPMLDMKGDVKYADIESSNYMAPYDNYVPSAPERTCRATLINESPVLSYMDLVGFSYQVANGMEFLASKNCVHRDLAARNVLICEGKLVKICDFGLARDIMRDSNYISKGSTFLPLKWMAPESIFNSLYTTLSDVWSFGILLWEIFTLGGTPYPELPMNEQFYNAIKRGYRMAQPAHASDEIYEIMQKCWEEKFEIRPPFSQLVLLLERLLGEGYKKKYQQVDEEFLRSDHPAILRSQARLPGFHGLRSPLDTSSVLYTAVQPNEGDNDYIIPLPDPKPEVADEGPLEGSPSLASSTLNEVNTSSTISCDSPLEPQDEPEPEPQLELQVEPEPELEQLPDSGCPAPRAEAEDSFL
For experiment [6], the target named is Ribosomal protein S6 kinase alpha-2 (Homo sapiens) (UniProt Q15349). In words: Selectivity interaction (KinomeScan (DiscoverX)) EUB0000045b RPS6KA2.
Sequence of Ribosomal protein S6 kinase alpha-2 (Homo sapiens) (Q15349 whole entry): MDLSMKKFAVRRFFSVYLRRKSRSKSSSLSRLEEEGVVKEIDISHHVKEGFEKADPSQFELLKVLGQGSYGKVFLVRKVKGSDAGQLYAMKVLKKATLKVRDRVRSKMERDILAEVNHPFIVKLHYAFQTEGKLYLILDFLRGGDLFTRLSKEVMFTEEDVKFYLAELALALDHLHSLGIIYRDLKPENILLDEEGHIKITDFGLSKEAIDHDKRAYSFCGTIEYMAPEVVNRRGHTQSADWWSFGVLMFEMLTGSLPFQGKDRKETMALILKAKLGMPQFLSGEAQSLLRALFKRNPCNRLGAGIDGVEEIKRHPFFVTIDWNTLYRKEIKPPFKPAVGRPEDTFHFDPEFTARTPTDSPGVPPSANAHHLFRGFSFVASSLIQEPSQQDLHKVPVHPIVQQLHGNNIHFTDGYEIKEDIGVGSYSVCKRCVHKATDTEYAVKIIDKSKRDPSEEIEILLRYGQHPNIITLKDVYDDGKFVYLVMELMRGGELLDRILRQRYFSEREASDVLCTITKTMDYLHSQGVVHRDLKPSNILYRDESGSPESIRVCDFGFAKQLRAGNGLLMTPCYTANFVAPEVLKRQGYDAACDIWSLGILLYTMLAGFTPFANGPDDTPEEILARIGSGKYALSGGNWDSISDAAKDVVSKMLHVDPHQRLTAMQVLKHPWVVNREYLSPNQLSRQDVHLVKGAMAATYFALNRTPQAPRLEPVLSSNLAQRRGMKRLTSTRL
Experiment [7] deals with Tyrosine-protein kinase receptor Tie-1 (Homo sapiens) (UniProt P35590). Description: Selectivity interaction (KinomeScan (DiscoverX)) EUB0000666a TIE1. The conditions noted are these: at 10 µM.
Sequence of Tyrosine-protein kinase receptor Tie-1 (Homo sapiens) (P35590 whole entry): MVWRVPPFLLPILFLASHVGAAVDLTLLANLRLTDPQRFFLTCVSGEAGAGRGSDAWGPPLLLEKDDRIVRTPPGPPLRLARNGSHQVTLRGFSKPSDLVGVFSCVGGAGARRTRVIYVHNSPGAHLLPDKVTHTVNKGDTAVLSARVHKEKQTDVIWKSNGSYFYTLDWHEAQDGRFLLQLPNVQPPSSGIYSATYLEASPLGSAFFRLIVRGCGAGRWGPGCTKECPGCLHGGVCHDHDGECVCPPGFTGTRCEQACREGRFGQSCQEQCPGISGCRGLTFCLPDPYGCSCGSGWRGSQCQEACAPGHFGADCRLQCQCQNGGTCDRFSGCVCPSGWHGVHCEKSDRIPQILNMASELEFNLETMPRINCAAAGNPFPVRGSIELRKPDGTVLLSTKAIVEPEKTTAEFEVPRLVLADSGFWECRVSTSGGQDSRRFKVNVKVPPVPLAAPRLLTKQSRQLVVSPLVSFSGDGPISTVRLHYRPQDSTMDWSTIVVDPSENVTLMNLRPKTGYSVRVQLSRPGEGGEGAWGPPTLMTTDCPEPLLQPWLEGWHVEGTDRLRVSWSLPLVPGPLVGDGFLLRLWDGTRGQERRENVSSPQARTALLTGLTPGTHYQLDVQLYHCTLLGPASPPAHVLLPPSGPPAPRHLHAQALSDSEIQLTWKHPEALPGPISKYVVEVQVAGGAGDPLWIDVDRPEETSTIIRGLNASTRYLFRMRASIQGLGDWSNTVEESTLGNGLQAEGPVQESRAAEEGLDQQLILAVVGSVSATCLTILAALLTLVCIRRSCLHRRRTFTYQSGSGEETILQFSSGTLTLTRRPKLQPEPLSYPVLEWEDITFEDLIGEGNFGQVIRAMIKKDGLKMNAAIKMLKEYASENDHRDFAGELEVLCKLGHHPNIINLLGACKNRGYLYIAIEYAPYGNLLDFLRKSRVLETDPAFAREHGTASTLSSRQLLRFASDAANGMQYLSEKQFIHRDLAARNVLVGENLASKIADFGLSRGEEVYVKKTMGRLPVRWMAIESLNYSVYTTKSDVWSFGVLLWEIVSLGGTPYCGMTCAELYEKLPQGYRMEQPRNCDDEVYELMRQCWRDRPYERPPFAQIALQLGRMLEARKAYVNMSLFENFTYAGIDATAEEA
Experiment [8] addresses Serine/threonine-protein kinase N1 (Homo sapiens, UniProt Q16512). Description: Selectivity interaction (Kinase panel (Z-LYTE Assay)) EUB0001632a PKN1. The conditions noted are these: at 10 µM.
Experiment [9] concerns the target RAC-gamma serine/threonine-protein kinase (Homo sapiens, UniProt Q9Y243). Description: Selectivity interaction (SelectScreen profiling (Invitrogen)) EUB0000607a AKT3. Particulars: at 2 µM.

Sequence of Ribosomal protein S6 kinase alpha-3 (P51812 whole entry): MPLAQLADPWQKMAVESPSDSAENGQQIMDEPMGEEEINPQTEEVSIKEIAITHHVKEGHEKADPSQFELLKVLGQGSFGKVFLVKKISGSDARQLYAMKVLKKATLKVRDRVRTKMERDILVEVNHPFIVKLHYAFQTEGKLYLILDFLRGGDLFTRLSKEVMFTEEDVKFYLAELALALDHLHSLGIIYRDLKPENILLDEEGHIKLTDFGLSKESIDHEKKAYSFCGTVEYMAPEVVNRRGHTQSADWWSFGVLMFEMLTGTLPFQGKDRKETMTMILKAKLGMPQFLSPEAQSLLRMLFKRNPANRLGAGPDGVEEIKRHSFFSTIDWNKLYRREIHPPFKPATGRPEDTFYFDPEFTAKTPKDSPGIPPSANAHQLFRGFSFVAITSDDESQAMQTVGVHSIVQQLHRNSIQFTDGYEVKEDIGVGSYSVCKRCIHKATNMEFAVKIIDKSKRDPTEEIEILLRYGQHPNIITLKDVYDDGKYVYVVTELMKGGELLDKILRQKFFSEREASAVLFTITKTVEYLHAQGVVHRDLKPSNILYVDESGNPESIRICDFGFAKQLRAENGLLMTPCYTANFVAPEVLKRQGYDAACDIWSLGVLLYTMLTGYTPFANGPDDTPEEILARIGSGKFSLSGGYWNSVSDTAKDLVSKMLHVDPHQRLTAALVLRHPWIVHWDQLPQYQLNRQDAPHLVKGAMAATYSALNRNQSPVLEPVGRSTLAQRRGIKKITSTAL
Sequence of Serine/threonine-protein kinase N1 (Q16512 2-942 limits assumed): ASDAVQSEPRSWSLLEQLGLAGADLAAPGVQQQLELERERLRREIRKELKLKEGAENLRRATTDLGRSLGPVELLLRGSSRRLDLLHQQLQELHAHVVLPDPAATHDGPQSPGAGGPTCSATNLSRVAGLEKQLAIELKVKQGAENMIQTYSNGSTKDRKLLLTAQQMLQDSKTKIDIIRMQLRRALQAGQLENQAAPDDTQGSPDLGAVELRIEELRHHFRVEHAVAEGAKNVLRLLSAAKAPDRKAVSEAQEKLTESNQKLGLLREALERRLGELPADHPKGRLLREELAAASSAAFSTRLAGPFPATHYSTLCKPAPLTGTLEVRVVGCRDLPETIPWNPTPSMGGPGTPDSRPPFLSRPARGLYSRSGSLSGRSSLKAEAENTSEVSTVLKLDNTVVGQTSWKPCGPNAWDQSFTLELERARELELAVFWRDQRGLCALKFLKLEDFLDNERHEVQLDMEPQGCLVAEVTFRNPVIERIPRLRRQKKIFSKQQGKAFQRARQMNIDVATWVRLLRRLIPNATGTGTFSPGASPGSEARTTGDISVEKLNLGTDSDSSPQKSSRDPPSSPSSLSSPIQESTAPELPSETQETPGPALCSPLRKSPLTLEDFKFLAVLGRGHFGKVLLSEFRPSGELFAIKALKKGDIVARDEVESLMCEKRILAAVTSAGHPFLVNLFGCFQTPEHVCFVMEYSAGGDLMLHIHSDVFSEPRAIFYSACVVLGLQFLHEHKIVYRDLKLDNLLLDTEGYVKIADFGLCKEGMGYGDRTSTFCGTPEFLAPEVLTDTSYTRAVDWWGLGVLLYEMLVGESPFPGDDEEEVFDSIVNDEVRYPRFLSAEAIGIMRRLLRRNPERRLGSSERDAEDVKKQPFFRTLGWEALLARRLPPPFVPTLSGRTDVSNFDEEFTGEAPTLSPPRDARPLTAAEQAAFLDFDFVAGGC

`C=CC(=O)Nc1cccc(C(=O)Nc2ccc(Nc3cc(-c4[nH]c(SC)nc4C)ccn3)cc2)c1`: the % of control is 81% in [1] (at 1 µM) and 58% in experiment [1] (at 5 µM). As to `CN(C)CCOc1ccc(-c2nc(-c3ccncc3)c(-c3ccc4c(c3)CC/C4=N\O)[nH]2)cc1`, in experiment [2], the % of control came to 100%.

For the molecule `CN(C)CC#Cc1ccc2[nH]c3c(c2c1)-c1nc(N)ncc1CCC3`, in experiment [3], the % of control worked out at 13%. As for `Cc1cc(F)c(C(=O)Nc2cccc(-c3nncn3C(C)C)n2)cc1-n1cnc(C2CC2)c1`, the % of control in experiment [4] is 57%. In [5], `Cn1cc(Nc2nccc(N3CC4CCC(C3)N4C(=O)[C@@H]3CC3(F)F)n2)cn1` came in with a % of inhibition of 66%. For the molecule `C=CC(=O)Nc1cc(-n2c(=O)ccc3cnc4ccc(-c5ccc(NS(C)(=O)=O)cc5)cc4c32)ccc1C`, the values for the % of control in [6] (at 1 µM) and in experiment [6] (at 10 µM) were 100% and 68%, respectively.

`O=C(NOC[C@H](O)CO)c1ccc(F)c(F)c1Nc1ccc(I)cc1F`: the % of control in experiment [7] was 54%. For the molecule `Cn1cc(-n2cnc3c(NCc4nc5cc(Cl)c(Cl)cc5[nH]4)nc(N4CCOCC4)nc32)cn1`, the % of control in experiment [8] was -4.72%. With `CNC(=O)Nc1ccc(-c2nc(N3CC4CCC(C3)O4)c3cnn(C4CCC5(CC4)OCCO5)c3n2)cc1`, the % of inhibition in [9] came out at 2%.
